No end group written: not given here.
System: binding of human IgA to the purified Cβ protein
Assay: ELISA inhibition assay: peptides blocking binding of human IgA to purified Cβ protein
Details: synthetic peptide added with half-maximal dilution of IgA myeloma protein
Procedure: Several synthetic peptides were made corresponding to the amino acid sequence contained within this region of the Cβ protein. Peptides were synthesized using NMP t-butoxycarbonyl chemistry on an ABI 430A peptide synthesizer (Applied Biosystems, Foster City, Calif.) and were deprotected. Peptides from a sample of the resin were removed from the resin by treatment with HF in the presence of anisole (0° C./1 h). Preparative purification of these peptides were performed using a C18 column (2.14 ID×30 cm) (Dynamax-Rainin, Woburn, Mass.). The peptides were quantitated by PTC amino acid analysis using Waters Picotag system (Waters, Milford, Mass.). The synthesized peptides eluted from the C18 column as a major peak consisting of usually 75-85% of the total elution profile. The amino acid composition of the purified peptides were in good agreement with the sequence which was used to synthesize the peptides. […] The plates were incubated at 37° C. for 1 h and the absorbance at 405 nm determined using an Elida-5 microtiter plate reader (Physica, New York, N.Y.). […] This was done to obtain a titer of the human IgA myeloma protein which would give a half-maximal reading in the ELISA assay. […] The dilution of the human IgA myeloma protein which gave the half maximal reading was then added. […] The plates were then processed and read as described. The percentage of inhibition would be calculated as follows: […]

For NHQKSQVEKMAEQKG [SEQ ID NO: 10], the “inhibition of human IgA binding to purified Cβ” value was “inhibited”.

Source: patent publication US20020058042A1, “Non-IgA fc binding forms of the Group B streptococcal beta antigens” (priority 1996, published 2002)
